Where a SMILES comes first, the peptide text is derived from it. Bridges are numbered along the chain shown (N, C = ends). [ ]: non-standard residue; d: D form. The star is where a group is joined. X2 = CC[C@H](C)CCCCC(=O)*; Dab = NCC[C@H](N)C(=O)O
Columns and labels:
[1] = tested on: E. coli ATCC 25922 (SEN) and E. coli NCTC13846 (MDR); assay: microbe, parasite or virus in culture; type: cell-based, Escherichia coli; conditions: for MIC: across three biological replicates
Procedure, shortened: (§1)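 Broth microdilution in cation-adjusted Mueller-Hinton Broth 2 (except SCH79797), 11–16-step serial dilutions, 5 × 10^5 cells/mL, 37 °C with shaking for 18 h, 2 replicates. MIC is the lowest concentration giving complete growth inhibition (OD600 < 0.05); relative MIC = MIC evolved/MIC ancestor.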

[2] = tested on: K. pneumoniae ATCC 10031 (SEN) and K. pneumoniae ATCC 700603 (MDR); assay: microbe, parasite or virus in culture; type: cell-based, Klebsiella pneumoniae; conditions: for MIC: across three biological replicates
Procedure, shortened: as §1

[3] = tested on: P. aeruginosa ATCC BAA-3107 (SEN) and P. aeruginosa LESB58 (MDR); assay: microbe, parasite or virus in culture; type: cell-based, Pseudomonas aeruginosa; conditions: across three biological replicates
Procedure, shortened: as §1

[4] = tested on: E. coli ATCC 25922 (SEN) and E. coli NCTC13846 (MDR); assay: Adaptive laboratory evolution (ALE), relative MIC of evolved lines; type: cell-based, Escherichia coli
Procedure, shortened: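 Ten parallel populations per antibiotic–ancestor pair were evolved in MHB at 37 °C, starting near 50% growth-inhibiting drug. Every 72 h they were passaged into 0.5–2.5× increasing concentrations, keeping the highest-drug well with OD600 > 0.2.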

[5] = Klebsiella pneumoniae ATCC 10031 (KP-SEN), ancestor strain, sheet fig 2a
[6] = EC-SEN (Escherichia coli ATCC 25922), evolved line 3
[7] = EC-SEN (Escherichia coli ATCC 25922), evolved line 4
[8] = EC-SEN (Escherichia coli ATCC 25922), evolved line 5
[9] = EC-SEN (Escherichia coli ATCC 25922), evolved line 6
[10] = EC-SEN (Escherichia coli ATCC 25922), evolved line 7
[11] = EC-SEN (Escherichia coli ATCC 25922), evolved line 8
[12] = EC-SEN (Escherichia coli ATCC 25922), evolved line 9
[13] = EC-SEN (Escherichia coli ATCC 25922), evolved line 10
[14] = EC-SEN, Escherichia coli ATCC 25922, evolved line 1
[15] = EC-SEN, Escherichia coli ATCC 25922, evolved line 2
[16] = Escherichia coli ATCC 25922 (EC-SEN)
[17] = Escherichia coli NCTC 13846 (EC-MDR)
[18] = Klebsiella pneumoniae ATCC 10031 (KP-SEN)
[19] = Klebsiella pneumoniae ATCC 700603 (KP-MDR)
[20] = Pseudomonas aeruginosa ATCC BAA-3107 (PA-SEN)
[21] = Pseudomonas aeruginosa LESB 58 (PA-MDR)

CN(C)c1cc(CNCC(C)(C)C)c(O)c2c1C[C@H]1C[C@H]3[C@H](N(C)C)C(O)=C(C(N)=O)C(=O)[C@@]3(O)C(O)=C1C2=O [Omadacycline]
0.9031: Relative MIC (log10) ([4]; EC-SEN (Escherichia coli ATCC 25922), evolved line 1 adapted to the named antibiotic) | Relative MIC (log10) ([4]; EC-SEN (Escherichia coli ATCC 25922), evolved line 2 adapted to the named antibiotic) | Relative MIC (log10) ([4]; EC-SEN (Escherichia coli ATCC 25922), evolved line 5 adapted to the named antibiotic) | Relative MIC (log10) ([4]; EC-SEN (Escherichia coli ATCC 25922), evolved line 9 adapted to the named antibiotic)
2 µg/mL: MIC of ancestor ([1]; Escherichia coli ATCC 25922 (EC-SEN), ancestor) | MIC of ancestor ([1]; Escherichia coli ATCC 25922 (EC-SEN), ancestor strain, sheet fig 2a) | MIC ([1]; Escherichia coli, Escherichia coli ATCC 25922 (EC-SEN))
8: Relative MIC [4, 7] | Relative MIC [4, 8] | Relative MIC [4, 11] | Relative MIC [4, 12] | Relative MIC ([4]; EC-SEN ATCC 25922, evolved line 1, evolved line vs ancestor) | Relative MIC ([4]; EC-SEN ATCC 25922, evolved line 2, evolved line vs ancestor) | Relative MIC ([4]; EC-SEN ATCC 25922, evolved line 4, evolved line vs ancestor) | Relative MIC ([4]; EC-SEN ATCC 25922, evolved line 5, evolved line vs ancestor) | Relative MIC ([4]; EC-SEN ATCC 25922, evolved line 8, evolved line vs ancestor) | Relative MIC ([4]; EC-SEN ATCC 25922, evolved line 9, evolved line vs ancestor) | Relative MIC [4, 14] | Relative MIC [4, 15]
16 µg/mL: MIC ([1]; Escherichia coli, Escherichia coli NCTC 13846 (EC-MDR))
2: Relative MIC [4, 10] | Relative MIC ([4]; EC-SEN ATCC 25922, evolved line 7, evolved line vs ancestor)
> 32 µg/mL: MIC ([2]; Klebsiella pneumoniae, Klebsiella pneumoniae ATCC 700603 (KP-MDR)) | MIC ([3]; Pseudomonas aeruginosa, ATCCBAA3107, Pseudomonas aeruginosa ATCC BAA-3107 (PA-SEN)) | MIC ([3]; Pseudomonas aeruginosa, ATCCBAA3107, Pseudomonas aeruginosa LESB 58 (PA-MDR))
0.6021: Relative MIC (log10) ([4]; EC-SEN (Escherichia coli ATCC 25922), evolved line 6 adapted to the named antibiotic)
1 µg/mL: MIC of ancestor ([2]; Klebsiella pneumoniae ATCC 10031 (KP-SEN), ancestor) | MIC of ancestor [2, 5] | MIC ([2]; Klebsiella pneumoniae, Klebsiella pneumoniae ATCC 10031 (KP-SEN))
4: Relative MIC [4, 6] | Relative MIC [4, 9] | Relative MIC [4, 13] | Relative MIC ([4]; EC-SEN ATCC 25922, evolved line 3, evolved line vs ancestor) | Relative MIC ([4]; EC-SEN ATCC 25922, evolved line 6, evolved line vs ancestor) | Relative MIC ([4]; EC-SEN ATCC 25922, evolved line 10, evolved line vs ancestor)

CC[C@H](C)CCCCC(=O)N[C@@H](CCN)C(=O)N[C@H](C(=O)N[C@@H](CCN)C(=O)N[C@H]1CCNC(=O)[C@H]([C@@H](C)O)NC(=O)[C@H](CCN)NC(=O)[C@H](CCN)NC(=O)[C@H](CC(C)C)NC(=O)[C@@H](Cc2ccccc2)NC(=O)[C@H](CCN)NC1=O)[C@@H](C)O [Polymyxin B] (X2-[Dab]T[Dab][Dab][Dab][dF]L[Dab][Dab]T; lactam 4-C (inferred); N-terminus assumed)
1.204 log10: Relative MIC (log10) ([4]; EC-MDR (Escherichia coli NCTC 13846), evolved line 5) | Relative MIC (log10) ([4]; EC-MDR (Escherichia coli NCTC 13846), evolved line 10) | Relative MIC (log10) ([4]; EC-MDR, Escherichia coli NCTC 13846, evolved line 6)
1 µg/mL: MIC [1, 16] | MIC [2, 19] | MIC [3, 20]
4 µg/mL: MIC [1, 17]
2 µg/mL: MIC [2, 18] | MIC [3, 21]
1.505 log10: Relative MIC (log10) ([4]; EC-MDR (Escherichia coli NCTC 13846), evolved line 2) | Relative MIC (log10) ([4]; EC-MDR, Escherichia coli NCTC 13846, evolved line 1)
2.107 log10: Relative MIC (log10) [4, 7] | Relative MIC (log10) [4, 9] | Relative MIC (log10) [4, 11] | Relative MIC (log10) [4, 13] | Relative MIC (log10) [4, 15]

CC(C)c1ccc(Cn2ccc3c4c(N)nc(NC5CC5)nc4ccc32)cc1 [SCH79797]
0.6021 log10: Relative MIC (log10) [4, 6] | Relative MIC (log10) [4, 7] | Relative MIC (log10) [4, 8] | Relative MIC (log10) [4, 10] | Relative MIC (log10) [4, 13]
8 µg/mL: MIC of evolved line ([4]; EC-SEN (E. coli ATCC 25922), evolved line 8 of the given antibiotic) | MIC of evolved line ([4]; EC-SEN (E. coli ATCC 25922), evolved line 9 of the given antibiotic)
32 µg/mL: MIC [2, 19] | MIC [3, 20]
16 µg/mL: MIC [1, 17] | MIC of evolved line ([4]; EC-SEN (E. coli ATCC 25922), evolved line 1 of the given antibiotic) | MIC of evolved line ([4]; EC-SEN (E. coli ATCC 25922), evolved line 2 of the given antibiotic) | MIC of evolved line ([4]; EC-SEN (E. coli ATCC 25922), evolved line 3 of the given antibiotic) | MIC of evolved line ([4]; EC-SEN (E. coli ATCC 25922), evolved line 4 of the given antibiotic) | MIC of evolved line ([4]; EC-SEN (E. coli ATCC 25922), evolved line 5 of the given antibiotic) | MIC of evolved line ([4]; EC-SEN (E. coli ATCC 25922), evolved line 7 of the given antibiotic) | MIC of evolved line ([4]; EC-SEN (E. coli ATCC 25922), evolved line 10 of the given antibiotic)
>32 µg/mL: MIC [3, 21]
2: Relative MIC ([4]; ALE, Escherichia coli ATCC 25922 (EC-SEN), evolved line 8) | Relative MIC ([4]; ALE, Escherichia coli ATCC 25922 (EC-SEN), evolved line 9) | Relative MIC ([4]; EC-SEN (E. coli ATCC 25922), evolved line 8 vs ancestor) | Relative MIC ([4]; EC-SEN (E. coli ATCC 25922), evolved line 9 vs ancestor) | Relative MIC [4, 11] | Relative MIC [4, 12] | Relative MIC ([4]; Escherichia coli ATCC 25922 (EC-SEN), evolved line 8) | Relative MIC ([4]; Escherichia coli ATCC 25922 (EC-SEN), evolved line 9)
4 µg/mL: MIC of ancestor ([1]; E. coli ATCC 25922 (EC-SEN), ancestor strain, sheet fig 2a) | MIC [1, 16] | MIC of ancestor ([1]; ancestor EC-SEN (Escherichia coli ATCC 25922)) | MIC of ancestor [2, 5] | MIC [2, 18] | MIC of ancestor ([2]; ancestor KP-SEN (Klebsiella pneumoniae ATCC 10031))
4: Relative MIC ([4]; ALE, Escherichia coli ATCC 25922 (EC-SEN), evolved line 1) | Relative MIC ([4]; ALE, Escherichia coli ATCC 25922 (EC-SEN), evolved line 2) | Relative MIC ([4]; ALE, Escherichia coli ATCC 25922 (EC-SEN), evolved line 3) | Relative MIC ([4]; ALE, Escherichia coli ATCC 25922 (EC-SEN), evolved line 4) | Relative MIC ([4]; ALE, Escherichia coli ATCC 25922 (EC-SEN), evolved line 5) | Relative MIC ([4]; ALE, Escherichia coli ATCC 25922 (EC-SEN), evolved line 7) | Relative MIC ([4]; ALE, Escherichia coli ATCC 25922 (EC-SEN), evolved line 10) | Relative MIC ([4]; EC-SEN (E. coli ATCC 25922), evolved line 1 vs ancestor) | Relative MIC ([4]; EC-SEN (E. coli ATCC 25922), evolved line 2 vs ancestor) | Relative MIC ([4]; EC-SEN (E. coli ATCC 25922), evolved line 3 vs ancestor) | Relative MIC ([4]; EC-SEN (E. coli ATCC 25922), evolved line 4 vs ancestor) | Relative MIC ([4]; EC-SEN (E. coli ATCC 25922), evolved line 5 vs ancestor) | Relative MIC ([4]; EC-SEN (E. coli ATCC 25922), evolved line 7 vs ancestor) | Relative MIC ([4]; EC-SEN (E. coli ATCC 25922), evolved line 10 vs ancestor) | Relative MIC [4, 6] | Relative MIC [4, 7] | Relative MIC [4, 8] | Relative MIC [4, 10] | Relative MIC [4, 13] | Relative MIC [4, 14] | Relative MIC [4, 15] | Relative MIC ([4]; Escherichia coli ATCC 25922 (EC-SEN), evolved line 1) | Relative MIC ([4]; Escherichia coli ATCC 25922 (EC-SEN), evolved line 2) | Relative MIC ([4]; Escherichia coli ATCC 25922 (EC-SEN), evolved line 3) | Relative MIC ([4]; Escherichia coli ATCC 25922 (EC-SEN), evolved line 4) | Relative MIC ([4]; Escherichia coli ATCC 25922 (EC-SEN), evolved line 5) | Relative MIC ([4]; Escherichia coli ATCC 25922 (EC-SEN), evolved line 7) | Relative MIC ([4]; Escherichia coli ATCC 25922 (EC-SEN), evolved line 10)

From article PMC11845477, “Exploring the principles behind antibiotics with limited resistance” (Nature Communications, 2025)
